Marks after values point to notes of the source that are not given here. Values belong to the compound of their own block, whether it stands above or below them.
Legend:
[1] = molecular target: human BRD4 first bromodomain (BDI_K57-E168) (Homo sapiens (Human), UniProt O60885); experiment: TR-FRET bromodomain binding assay, BRD4 first bromodomain
HPAC = experiment: Proliferation panel assay, Pancreas HPAC; type: cell-based; details: Homo sapiens, read-out: Cellular Proliferation EC50
SKM1 = experiment: Proliferation panel assay, AML SKM1; type: cell-based; details: Homo sapiens, SKM-1, read-out: Cellular Proliferation EC50
SK-LMS-1 = experiment: Proliferation panel assay, Sarcoma SK-LMS-1; type: cell-based; details: Homo sapiens, read-out: Cellular Proliferation EC50
H460 = experiment: Proliferation panel assay, NSCLC H460; type: cell-based; details: Homo sapiens, NCI-H460, read-out: Cellular Proliferation EC50
HepG2 = experiment: Proliferation panel assay, Hepatocellular HepG2; type: cell-based; details: Homo sapiens, read-out: Cellular Proliferation EC50
FaDu = experiment: Proliferation panel assay, Head & Neck FaDu; type: cell-based; details: Homo sapiens, read-out: Cellular Proliferation EC50
PC3M = experiment: Proliferation panel assay, Prostate PC3M; type: cell-based; details: Homo sapiens, PC-3M, read-out: Cellular Proliferation EC50
Ramos = experiment: Proliferation panel assay, NHL Ramos; type: cell-based; details: Homo sapiens, read-out: Cellular Proliferation EC50
MDAMB453 = experiment: Proliferation panel assay, Breast MDAMB453; type: cell-based; details: Homo sapiens, MDA-MB-453, read-out: Cellular Proliferation EC50
BxPC3FP5 = experiment: Proliferation panel assay, Pancreas BxPC3FP5; type: cell-based; details: read-out: Cellular Proliferation EC50
A-375 = experiment: Proliferation panel assay, Melanoma A-375; type: cell-based; details: Homo sapiens, read-out: Cellular Proliferation EC50
[2] = Mouse liver microsome stability assay; type: in vitro ADME; details: male, CD1, mouse, microsomes, pH 7.4
EJ-1 = experiment: Proliferation panel assay, Bladder EJ-1; type: cell-based; details: EJ1, read-out: Cellular Proliferation EC50
Ly18 = experiment: Proliferation panel assay, NHL Ly18; type: cell-based; details: read-out: Cellular Proliferation EC50
D54MG = experiment: Proliferation panel assay, Glioblastoma D54MG; type: cell-based; details: read-out: Cellular Proliferation EC50
Raji = experiment: Proliferation panel assay, AML Raji; type: cell-based; details: Homo sapiens, Burkitt lymphoma, read-out: Cellular Proliferation EC50
RPMI-8226 = experiment: Proliferation panel assay, Multiple Myeloma RPMI-8226; type: cell-based; details: Homo sapiens, read-out: Cellular Proliferation EC50
[3] = Rat liver microsome stability assay; type: in vitro ADME; details: rat liver microsomes (male Sprague-Dawley), 0.5 μM test compound, 0.25 mg/mL microsomal protein, pH 7.4, 37° C.; read-out: Stability in rat liver microsomes (t1/2 in minutes)
786-0 = experiment: Proliferation panel assay, RCC 786-0; type: cell-based; details: Homo sapiens, read-out: Cellular Proliferation EC50
OPM2 = experiment: Proliferation panel assay, Multiple Myeloma OPM2; type: cell-based; details: Homo sapiens, OPM-2, read-out: Cellular Proliferation EC50
NCI-H929 = experiment: Proliferation panel assay, Multiple Myeloma NCI-H929; type: cell-based; details: Homo sapiens, read-out: Cellular Proliferation EC50
GEO = experiment: Proliferation panel assay, Colon GEO; type: cell-based; details: read-out: Cellular Proliferation EC50
MDAMB231 = experiment: Proliferation panel assay, Breast MDAMB231; type: cell-based; details: Homo sapiens, MDA-MB-231, read-out: Cellular Proliferation EC50
H1299 = experiment: Proliferation panel assay, NSCLC H1299; type: cell-based; details: Homo sapiens, NCI-H1299, read-out: Cellular Proliferation EC50
[4] = Human liver microsome stability assay; type: in vitro ADME; details: both sexes, human, microsomes, pH 7.4
[5] = system: Ramos human cancer cell xenograft; experiment: Xenograft efficacy study, Ramos; type: in vivo, mouse; details: 3.125 mg/kg/day, PO, BID (5 d on, 3 d off)x2, vehicle F
[6] = system: breast cancer cell line MX-1; experiment: MX-1 cell line proliferation assay; type: cell-based, human; details: Homo sapiens, MX1, 72 h; MX-1 cells, 3-day proliferation, Cell Titer Glo; read-out: Cellular proliferation: EC50
[7] = molecular target: human BRD4 second bromodomain (BDII_E352-M457) (Homo sapiens (Human), UniProt O60885); experiment: TR-FRET bromodomain binding assay, BRD4 second bromodomain
DLD-1 = experiment: Proliferation panel assay, Colon DLD-1; type: cell-based; details: Homo sapiens, read-out: Cellular Proliferation EC50
H1975 = experiment: Proliferation panel assay, NSCLC H1975; type: cell-based; details: Homo sapiens, NCI-H1975, read-out: Cellular Proliferation EC50
[8] = system: MX-1 human breast cancer xenograft tumors; experiment: Xenograft tumor growth inhibition assay, MX-1; type: in vivo, mouse; details: MX-1, PO, vehicle F
[9] = system: LPS induced IL-6 production; experiment: LPS (lipopolysaccharide) induced IL-6 production mouse assay; type: in vivo; details: Mus musculus, read-out: Inhibition of LPS induced IL-6 production in Mice, % inhibition at 3 mg/kg; 3 mg/kg oral, 1 h before LPS; serum IL-6 2 h after LPS
[10] = system: OPM-2 human multiple myeloma xenograft tumors; experiment: animal or person; details: Mus musculus, OPM-2, po, PO, vehicle A
[11] = system: rat collagen induced arthritis (rCIA) paw swelling; details: rCIA, dosed at 3 mg/kg (positive control) once daily day 10-17
[12] = system: SKM1 human cancer cell xenograft; experiment: Xenograft efficacy study, SKM1; type: in vivo, mouse
[13] = system: MV4-11 human cancer cell xenograft; experiment: Xenograft efficacy study, MV4-11; type: in vivo, mouse; details: 250 mg/kg/day, IP, BID Q7Dx3, vehicle C
[14] = 12.5 mg/kg/day, BID (5 on, 3 off)x2
[15] = 25 mg/kg/day, BID (5 on, 3 off)x2
[16] = 3 mg/kg/day, QD (5 on, 3 off, 5 on)
[17] = 6 mg/kg/day, IV, Q7Dx3, vehicle C
[18] = 250 mg/kg/day, IP, BID Q7Dx3, vehicle C

Structure (SMILES): Cn1cc(-c2cc(NS(C)(=O)=O)ccc2Oc2ccc(F)cc2F)c2cc[nH]c2c1=O [Example 27, N-[4-(2,4-difluorophenoxy)-3-(6-methyl-7-oxo-6,7-dihydro-1H-pyrrolo[2,3-c]pyridin-4-yl)phenyl]methanesulfonamide]
Ki [1]: 2.5 nM
change in vivo at 1 mg/kg ([10]; read-out: % TGD (tumor growth delay), OPM-2, 1 mg/kg/day, QDx14): -2%
change in vivo at 3 mg/kg ([10]; read-out: % TGD (tumor growth delay), OPM-2, 3 mg/kg/day, QD (5 on, 3 off, 5 on)): 7%
inhibition in vivo at 1 mg/kg ([10]; read-out: % TGI (tumor growth inhibition), OPM-2, 1 mg/kg/day, QDx14): 59%
inhibition in vivo at 3 mg/kg ([10]; read-out: % TGI (tumor growth inhibition), OPM-2, 3 mg/kg/day, QD (5 on, 3 off, 5 on)): 67%
half-life at 0.5 μM [2]: 59 min
half-life at 0.5 μM [3]: > 120 min
half-life at 0.5 μM [4]: 32 min
EC50 [6]: 31.7 nM
Ki [7]: 2.2 nM
% TGD (tumor growth delay) ([8]; 0.3 mg/kg/day, QD): 35%
% TGI (tumor growth inhibition) ([8]; 0.3 mg/kg/day, QD): 38** %
% removed from study ([8]; 0.3 mg/kg/day, QD): 0%
% TGD (tumor growth delay) ([8]; 1 mg/kg/day, QD): 13%
% TGI (tumor growth inhibition) ([8]; 1 mg/kg/day, QD): 57*** %
% removed from study ([8]; 1 mg/kg/day, QD): 0%
% TGI (tumor growth inhibition) [8, 16]: 69*** %
% removed from study [8, 16]: 0%
inhibition in vivo at 3 mg/kg [9]: 89%

Structure (SMILES): C[C@]12C=CC(=O)C=C1CC[C@@H]1[C@@H]2[C@@H](O)C[C@@]2(C)[C@H]1CC[C@]2(O)C(=O)CO [Prednisolone, prednisolone, reference compound]
AUC of Paw Swelling, MEAN [11]: 0.67** ml-day

Structure (SMILES): Nc1ncn([C@@H]2O[C@H](CO)[C@@H](O)[C@H]2O)c(=O)n1 [azacitidine]
% TGD (tumor growth delay) [12, 17]: 98* %
% TGI (tumor growth inhibition) [12, 17]: 54** %
% removed from study [12, 17]: 0%

Structure (SMILES): Nc1ccn([C@@H]2O[C@H](CO)[C@@H](O)[C@@H]2O)c(=O)n1 [cytarabine]
% TGD (tumor growth delay) [13]: 37*** %
% TGI (tumor growth inhibition) [13]: 47*** %
% removed from study [13]: 0%
% TGD (tumor growth delay) [12, 18]: 30%
% TGI (tumor growth inhibition) [12, 18]: 20%
% removed from study [12, 18]: 0%

The next lines start with results.

Ki [1]: 1.4 nM
EC50 (SKM1): 5 nM
EC50 (SK-LMS-1): 25 nM
EC50 (H460): 3.77 µM
EC50 (HepG2): 74.6 nM
EC50 (PC3M): 0.07 µM
EC50 (Ramos): 20 nM
EC50 (MDAMB453): 20 nM
EC50 (BxPC3FP5): 10 nM
EC50 (A-375): 20 nM
half-life at 0.5 μM [2]: 57 min
EC50 (D54MG): 38 nM
EC50 (Raji): 6 nM
EC50 (RPMI-8226): 11 nM
half-life at 0.5 μM [3]: 4 min
EC50 (786-0): 11 nM
EC50 (OPM2): 1 nM
EC50 (NCI-H929): 3 nM
EC50 (MDAMB231): 220 nM
EC50 (H1299): 60 nM
half-life at 0.5 μM [4]: 59 min
% removed from study [5]: 0%
EC50 [6]: 16.4 nM
Ki [7]: 2 nM
EC50 (DLD-1): 200 nM
EC50 (H1975): 20 nM
Structure (SMILES): Cn1cc(-c2cc(NS(C)(=O)=O)ccc2Oc2ccccc2)c2cc[nH]c2c1=O [Example 4, N-[3-(6-methyl-7-oxo-6,7-dihydro-1H-pyrrolo[2,3-c]pyridin-4-yl)-4-phenoxyphenyl]methanesulfonamide]
EC50 (HPAC): 50 nM
EC50 (FaDu): 20 nM
EC50 (EJ-1): 202 nM
EC50 (Ly18): 20 nM
EC50 (GEO): 80 nM
% TGD (tumor growth delay) [5]: 27* %
% TGI (tumor growth inhibition) [5]: 19%
% TGD (tumor growth delay) [8, 14]: 70*** %
% TGI (tumor growth inhibition) [8, 14]: 73*** %
% removed from study [8, 14]: 10%
% TGD (tumor growth delay) [8, 15]: 81*** %
% TGI (tumor growth inhibition) [8, 15]: 77*** %
% removed from study [8, 15]: 30%
inhibition in vivo at 3 mg/kg [9]: 69%

Ki [1]: 2.5 nM
EC50 (SKM1): 58 nM
EC50 (SK-LMS-1): 934 nM
EC50 (H460): > 10 µM
EC50 (HepG2): 885 nM
EC50 (PC3M): 8.11 µM
EC50 (Ramos): 320 nM
EC50 (MDAMB453): 240 nM
EC50 (BxPC3FP5): 740 nM
EC50 (A-375): 3610 nM
EC50 (D54MG): 2300 nM
EC50 (Raji): 84 nM
EC50 (RPMI-8226): 1400 nM
EC50 (786-0): 884 nM
EC50 (OPM2): 39 nM
EC50 (NCI-H929): 154 nM
EC50 (MDAMB231): 1220 nM
EC50 (H1299): 2570 nM
EC50 [6]: 400 nM
Ki [7]: 1.8 nM
EC50 (DLD-1): 4970 nM
EC50 (H1975): 1370 nM
Structure (SMILES): Cn1nc(-c2cc(NS(C)(=O)=O)ccc2Oc2ccccc2)c2cc(C(N)=O)[nH]c2c1=O [Example 78, 6-methyl-4-{5-[(methylsulfonyl)amino]-2-phenoxyphenyl}-7-oxo-6,7-dihydro-1H-pyrrolo[2,3-d]pyridazine-2-carboxamide]
EC50 (HPAC): 1190 nM
EC50 (FaDu): 390 nM
EC50 (EJ-1): 2090 nM
EC50 (Ly18): 420 nM
EC50 (GEO): 1290 nM

From US9296741B2, “Bromodomain inhibitors” (priority 2012, dated 2016)
